# Source: patent publication US20230085307A1, “PYRIDAZINONE COMPOUND AND HERBICIDE” (NISSAN CHEMICAL CORPORATION, priority 2019, published 2023)
# What was measured:
# persian speedwell [1] = test: Test Example 4: herbicidal effect by soil treatment (Table 19, symbol R); type: in vivo, Persian speedwell (Veronica persica); conditions: amount of applied herbicide 320 g/ha
# How it was run: (§1)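 In this soil treatment, the formulated compound reached the seeds only through the soil: seeds were buried about 1.5 cm deep in sterilized diluvial soil, then the diluted emulsion was sprayed over the surface. After three weeks at 25° C. to 30° C. in a greenhouse, effects were graded on criteria from an earlier test.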
# redroot pigweed [2] = test: Test Example 4: herbicidal effect by soil treatment (Table 19, symbol N); type: in vivo, redroot pigweed (Amaranthus retroflexus); conditions: amount of applied herbicide 320 g/ha
# How it was run: as §1
# velvetleaf [3] = test: Test Example 5: herbicidal effect by foliage application, plastic box (Table 20, symbol M); type: in vivo, velvetleaf (Abutilon theophrasti); conditions: foliage application, three weeks after application
# How it was run: (§2)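 Plants were sown into sterilized diluvial soil under about 1.5 cm cover and kept in a greenhouse at 25° C. to 30° C. Fourteen days on, foliage received an even spray of the diluted emulsion. Herbicidal or crop effect was judged three weeks afterwards.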
# barnyard grass [4] = test: Test Example 4: herbicidal effect by soil treatment (Table 19, symbol H); type: in vivo, barnyard grass (Echinochloa crus-galli); conditions: amount of applied herbicide 320 g/ha
# How it was run: as §1
# Italian ryegrass [5] = test: Test Example 5: herbicidal effect by foliage application, plastic box (Table 20, symbol K); type: in vivo, Italian ryegrass (Lolium multiflorum); conditions: foliage application, three weeks after application
# How it was run: as §2
# southern crabgrass [6] = test: Test Example 4: herbicidal effect by soil treatment (Table 19, symbol F); type: in vivo, southern crabgrass (Digitaria ciliaris); conditions: amount of applied herbicide 320 g/ha
# How it was run: as §1
# windgrass [7] = test: Test Example 4: herbicidal effect by soil treatment (Table 19, symbol L); type: in vivo, windgrass (Apera spica-venti); conditions: amount of applied herbicide 320 g/ha
# How it was run: as §1
# rice flat sedge = test: Test Example 3: herbicidal effect by foliage application, Wagner pot (Table 18, symbol E); type: in vivo, rice flat sedge (Cyperus iria); conditions: 320 g/ha
# How it was run: (§3)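 Plants were sown in alluvial soil held under 0.1–0.5 cm standing water and grown 14 days in a greenhouse at 25–30 °C. An emulsifiable formulation, water-diluted to the set dose, was then sprayed onto the foliage, and effects were scored three weeks later using previously defined criteria.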
# wild oat [8] = test: Test Example 5: herbicidal effect by foliage application, plastic box (Table 20, symbol I); type: in vivo, wild oat (Avena fatua); conditions: foliage application, three weeks after application
# How it was run: as §2
# velvetleaf [9] = test: Test Example 4: herbicidal effect by soil treatment (Table 19, symbol M); type: in vivo, velvetleaf (Abutilon theophrasti); conditions: amount of applied herbicide 320 g/ha
# How it was run: as §1
# wild oat [10] = test: Test Example 4: herbicidal effect by soil treatment (Table 19, symbol I); type: in vivo, wild oat (Avena fatua); conditions: amount of applied herbicide 320 g/ha
# How it was run: as §1
# green foxtail [11] = test: Test Example 5: herbicidal effect by foliage application, plastic box (Table 20, symbol G); type: in vivo, green foxtail (Setaria viridis); conditions: foliage application, three weeks after application
# How it was run: as §2
# lambsquarters [12] = test: Test Example 5: herbicidal effect by foliage application, plastic box (Table 20, symbol O); type: in vivo, lambsquarters (Chenopodium album); conditions: foliage application, three weeks after application
# How it was run: as §2
# Chinese sprangletop = test: Test Example 3: herbicidal effect by foliage application, Wagner pot (Table 18, symbol D); type: in vivo, chinese sprangletop (Leptochloa chinensis); conditions: 320 g/ha
# How it was run: as §3
# chickweed [13] = test: Test Example 5: herbicidal effect by foliage application, plastic box (Table 20, symbol P); type: in vivo, common chickweed (Stellaria media); conditions: foliage application, three weeks after application
# How it was run: as §2
# redroot pigweed [14] = test: Test Example 5: herbicidal effect by foliage application, plastic box (Table 20, symbol N); type: in vivo, redroot pigweed (Amaranthus retroflexus); conditions: foliage application, three weeks after application
# How it was run: as §2
# barnyard grass [15] = test: Test Example 5: herbicidal effect by foliage application, plastic box (Table 20, symbol H); type: in vivo, barnyard grass (Echinochloa crus-galli); conditions: foliage application, three weeks after application
# How it was run: as §2
# chickweed [16] = test: Test Example 4: herbicidal effect by soil treatment (Table 19, symbol P); type: in vivo, common chickweed (Stellaria media); conditions: amount of applied herbicide 320 g/ha
# How it was run: as §1
# Italian ryegrass [17] = test: Test Example 4: herbicidal effect by soil treatment (Table 19, symbol K); type: in vivo, Italian ryegrass (Lolium multiflorum); conditions: amount of applied herbicide 320 g/ha
# How it was run: as §1
# blackgrass [18] = test: Test Example 5: herbicidal effect by foliage application, plastic box (Table 20, symbol J); type: in vivo, blackgrass (Alopecurus myosuroides); conditions: foliage application, three weeks after application
# How it was run: as §2
# windgrass [19] = test: Test Example 5: herbicidal effect by foliage application, plastic box (Table 20, symbol L); type: in vivo, windgrass (Apera spica-venti); conditions: foliage application, three weeks after application
# How it was run: as §2
# lambsquarters [20] = test: Test Example 4: herbicidal effect by soil treatment (Table 19, symbol O); type: in vivo, lambsquarters (Chenopodium album); conditions: amount of applied herbicide 320 g/ha
# How it was run: as §1
# blackgrass [21] = test: Test Example 4: herbicidal effect by soil treatment (Table 19, symbol J); type: in vivo, blackgrass (Alopecurus myosuroides); conditions: amount of applied herbicide 320 g/ha
# How it was run: as §1
# green foxtail [22] = test: Test Example 4: herbicidal effect by soil treatment (Table 19, symbol G); type: in vivo, green foxtail (Setaria viridis); conditions: amount of applied herbicide 320 g/ha
# How it was run: as §1
# barnyard grass [23] = test: Test Example 3: herbicidal effect by foliage application, Wagner pot (Table 18, symbol H); type: in vivo, barnyard grass (Echinochloa crus-galli); conditions: 320 g/ha
# How it was run: as §3
# persian speedwell [24] = test: Test Example 5: herbicidal effect by foliage application, plastic box (Table 20, symbol R); type: in vivo, Persian speedwell (Veronica persica); conditions: foliage application, three weeks after application
# How it was run: as §2
# southern crabgrass [25] = test: Test Example 5: herbicidal effect by foliage application, plastic box (Table 20, symbol F); type: in vivo, southern crabgrass (Digitaria ciliaris); conditions: foliage application, three weeks after application
# How it was run: as §2
Structure (SMILES),"herbicidal effect rating, R: persian speedwell (persian speedwell [1])","herbicidal effect rating, N: redroot pigweed (redroot pigweed [2])","herbicidal effect rating, H: barnyard grass (barnyard grass [4])","herbicidal effect rating, F: southern crabgrass (southern crabgrass [6])","herbicidal effect rating, L: windgrass (windgrass [7])","herbicidal effect on E (rice flat sedge), rating 0-5 (rice flat sedge)","herbicidal effect rating, M: velvetleaf (velvetleaf [9])","herbicidal effect rating, I: wild oat (wild oat [10])","herbicidal effect on D (Chinese sprangletop), rating 0-5 (Chinese sprangletop)","herbicidal effect rating, P: chickweed (chickweed [16])","herbicidal effect rating, K: Italian ryegrass (Italian ryegrass [17])","herbicidal effect rating, O: lambsquarters (lambsquarters [20])","herbicidal effect rating, J: blackgrass (blackgrass [21])","herbicidal effect rating, G: green foxtail (green foxtail [22])","herbicidal effect on H (barnyard grass), rating 0-5 (barnyard grass [23])",further results
CCCC(=O)Oc1c(C)nn(C)c(=O)c1-c1c(-c2ccc(F)cc2OC)sc2ccccc12 [1-056],4 (Herbicidal rate of 70% or more and less than 90%),5 (Herbicidal rate of 90% or more (almost completely withered)),3 (Herbicidal rate of 40% or more and less than 70%),3 (Herbicidal rate of 40% or more and less than 70%),5 (Herbicidal rate of 90% or more (almost completely withered)),5 (Herbicidal rate of 90% or more (almost completely withered)),0 (Herbicidal rate of 5% or less (almost no effect)),3 (Herbicidal rate of 40% or more and less than 70%),2 (Herbicidal rate of 20% or more and less than 40%),3 (Herbicidal rate of 40% or more and less than 70%),0 (Herbicidal rate of 5% or less (almost no effect)),3 (Herbicidal rate of 40% or more and less than 70%),1 (Herbicidal rate of 5% or more and less than 20%),5 (Herbicidal rate of 90% or more (almost completely withered)),4 (Herbicidal rate of 70% or more and less than 90%),"herbicidal effect grade, M: velvetleaf (velvetleaf [3]; 320 g/ha): 4 (Herbicidal rate of 70% or more and less than 90%); herbicidal effect grade, K: Italian ryegrass (Italian ryegrass [5]; 320 g/ha): 1 (Herbicidal rate of 5% or more and less than 20%); herbicidal effect grade, I: wild oat (wild oat [8]; 320 g/ha): 4 (Herbicidal rate of 70% or more and less than 90%); herbicidal effect grade, G: green foxtail (green foxtail [11]; 320 g/ha): 5 (Herbicidal rate of 90% or more (almost completely withered)); herbicidal effect grade, O: lambsquarters (lambsquarters [12]; 320 g/ha): 2 (Herbicidal rate of 20% or more and less than 40%); herbicidal effect grade, P: chickweed (chickweed [13]; 320 g/ha): 5 (Herbicidal rate of 90% or more (almost completely withered)); herbicidal effect grade, N: redroot pigweed (redroot pigweed [14]; 320 g/ha): 3 (Herbicidal rate of 40% or more and less than 70%); herbicidal effect grade, H: barnyard grass (barnyard grass [15]; 320 g/ha): 4 (Herbicidal rate of 70% or more and less than 90%); herbicidal effect grade, J: blackgrass (blackgrass [18]; 320 g/ha): 4 (Herbicidal rate of 70% or more and less than 90%); herbicidal effect grade, L: windgrass (windgrass [19]; 320 g/ha): 5 (Herbicidal rate of 90% or more (almost completely withered)); herbicidal effect grade, R: persian speedwell (persian speedwell [24]; 320 g/ha): 3 (Herbicidal rate of 40% or more and less than 70%); herbicidal effect grade, F: southern crabgrass (southern crabgrass [25]; 320 g/ha): 5 (Herbicidal rate of 90% or more (almost completely withered))"
C#CCOc1ccccc1-c1sc2ccccc2c1-c1c(O)c(C)nn(C)c1=O [1-112],5 (Herbicidal rate of 90% or more (almost completely withered)),1 (Herbicidal rate of 5% or more and less than 20%),0 (Herbicidal rate of 5% or less (almost no effect)),0 (Herbicidal rate of 5% or less (almost no effect)),5 (Herbicidal rate of 90% or more (almost completely withered)),3 (Herbicidal rate of 40% or more and less than 70%),3 (Herbicidal rate of 40% or more and less than 70%),0 (Herbicidal rate of 5% or less (almost no effect)),3 (Herbicidal rate of 40% or more and less than 70%),5 (Herbicidal rate of 90% or more (almost completely withered)),0 (Herbicidal rate of 5% or less (almost no effect)),0 (Herbicidal rate of 5% or less (almost no effect)),4 (Herbicidal rate of 70% or more and less than 90%),1 (Herbicidal rate of 5% or more and less than 20%),4 (Herbicidal rate of 70% or more and less than 90%),"M: velvetleaf, herbicidal effect (velvetleaf [3]; AAH 320 g/ha): 4 (Herbicidal rate of 70% or more and less than 90%); K: Italian ryegrass, herbicidal effect (Italian ryegrass [5]; AAH 320 g/ha): 3 (Herbicidal rate of 40% or more and less than 70%); I: wild oat, herbicidal effect (wild oat [8]; AAH 320 g/ha): 5 (Herbicidal rate of 90% or more (almost completely withered)); G: green foxtail, herbicidal effect (green foxtail [11]; AAH 320 g/ha): 5 (Herbicidal rate of 90% or more (almost completely withered)); O: lambsquarters, herbicidal effect (lambsquarters [12]; AAH 320 g/ha): 1 (Herbicidal rate of 5% or more and less than 20%); P: chickweed, herbicidal effect (chickweed [13]; AAH 320 g/ha): 5 (Herbicidal rate of 90% or more (almost completely withered)); N: redroot pigweed, herbicidal effect (redroot pigweed [14]; AAH 320 g/ha): 5 (Herbicidal rate of 90% or more (almost completely withered)); H: barnyard grass, herbicidal effect (barnyard grass [15]; AAH 320 g/ha): 4 (Herbicidal rate of 70% or more and less than 90%); J: blackgrass, herbicidal effect (blackgrass [18]; AAH 320 g/ha): 5 (Herbicidal rate of 90% or more (almost completely withered)); L: windgrass, herbicidal effect (windgrass [19]; AAH 320 g/ha): 5 (Herbicidal rate of 90% or more (almost completely withered)); R: persian speedwell, herbicidal effect (persian speedwell [24]; AAH 320 g/ha): 5 (Herbicidal rate of 90% or more (almost completely withered)); F: southern crabgrass, herbicidal effect (southern crabgrass [25]; AAH 320 g/ha): 5 (Herbicidal rate of 90% or more (almost completely withered))"
